Biological target: MDM2 (Homo sapiens, UniProt Q00987)
Assay: biochemical

Chain of MDM2 (Q00987 1-118): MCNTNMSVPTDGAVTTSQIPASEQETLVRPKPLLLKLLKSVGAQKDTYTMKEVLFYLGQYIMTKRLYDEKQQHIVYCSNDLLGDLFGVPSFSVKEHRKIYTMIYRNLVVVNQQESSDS

Ki: 9.6 ± 3.9 nM
SMILES: CC(C)(C)C[C@H]1N[C@@H](C(=O)NCC[C@H](O)CO)[C@H](c2ccc(F)c(Cl)c2)[C@@]12C(=O)Nc1cc(Cl)c(F)cc12 [MI-319]

Source: publication PMC2794250, “An MDM2 antagonist (MI-319) restores p53 functions and increases the life span of orally treated follicular lymphoma bearing animals” (2009)
